This note sets out measurements from publication PMC6973011, “Stafia‐1: a STAT5a‐Selective Inhibitor Developed via Docking‐Based Screening of in Silico O‐Phosphorylated Fragments” (Chemistry (Weinheim an Der Bergstrasse, Germany), 2019).

Where a chain is given by its changes, count along the chain named.

The target in one assay is T1, STAT5b (Homo sapiens, UniProt P51692).
T1 construct: made in house
T1 sequence (P51692 1-787): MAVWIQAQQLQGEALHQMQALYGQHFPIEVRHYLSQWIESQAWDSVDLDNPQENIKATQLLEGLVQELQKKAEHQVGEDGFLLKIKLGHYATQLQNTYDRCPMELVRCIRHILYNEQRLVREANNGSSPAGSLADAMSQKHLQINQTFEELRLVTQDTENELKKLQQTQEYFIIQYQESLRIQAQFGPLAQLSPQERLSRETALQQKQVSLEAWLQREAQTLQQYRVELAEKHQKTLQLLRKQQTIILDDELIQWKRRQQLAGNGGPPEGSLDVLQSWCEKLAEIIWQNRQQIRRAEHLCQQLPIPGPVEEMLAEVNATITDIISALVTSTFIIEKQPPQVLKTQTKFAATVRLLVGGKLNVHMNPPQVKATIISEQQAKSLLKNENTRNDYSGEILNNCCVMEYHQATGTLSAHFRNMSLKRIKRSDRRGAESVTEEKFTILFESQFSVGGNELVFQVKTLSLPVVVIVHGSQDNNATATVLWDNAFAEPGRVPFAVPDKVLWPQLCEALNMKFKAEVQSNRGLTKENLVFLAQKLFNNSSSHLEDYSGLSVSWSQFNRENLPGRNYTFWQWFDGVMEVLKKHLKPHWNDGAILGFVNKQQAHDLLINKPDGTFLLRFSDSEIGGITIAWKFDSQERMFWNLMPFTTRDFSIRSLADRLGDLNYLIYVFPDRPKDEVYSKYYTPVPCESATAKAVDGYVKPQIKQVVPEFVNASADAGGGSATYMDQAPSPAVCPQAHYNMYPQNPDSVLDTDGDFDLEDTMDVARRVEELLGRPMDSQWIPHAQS
The experiment in a line: Fluorescence polarization competitive binding assay, STAT5b. The following applies: read-out: STAT5b inhibition at 200 μM.

Assay [1] deals with T2, STAT5b Arg566Trp/Met644Lys (Homo sapiens, UniProt P51692, M644K/R566W).
T2 construct: made in house
T2 sequence (P51692 1-787 R566W/M644K): T1 sequence (P51692 1-787) with R566W, M644K
The experiment in a line: Fluorescence polarization assay, double mutant STAT5b Arg566Trp/Met644Lys. The following applies: FP assay. The class given is binding.

Assay [2] deals with T3, STAT5b Gln636Pro/Met639Asn/Phe640Leu/Met644Lys/Asn664Ser/Tyr679Phe (STAT5b‐6M) (Homo sapiens, UniProt P51692, F640L/M639N/M644K/N664S/Q636P/Y679F).
T3 construct: made in house
T3 sequence (P51692 1-787 Q636P/M639N/F640L/M644K/N664S/Y679F): T1 sequence (P51692 1-787) with Q636P, M639N, F640L, M644K, N664S, Y679F
The assay can be described thus: Fluorescence polarization assay, mutant STAT5b-6M. The class given is binding.

In general, inhibition refers to the percentage by which the read-out fell short of the control. What is called IC50 is the point on the concentration scale where inhibition reaches its midpoint. Low readings indicate greater potency in that assay, high ones weaker potency in that assay. What is called Ki is a dissociation constant, usually derived from enzyme kinetics or from competition with a known ligand. The low end stands for tighter binding, the high end for weaker binding. For `COc1cc(-c2cc(OP(=O)(O)O)cc(-c3cc(OC)c(OC)c(OC)c3)c2)cc(OC)c1OC` [Compound 20], the inhibition at 200 µM was 37 ± 5% on STAT5b and 46 ± 8% in assay [2] (FP assay, 200 µM). Further, the IC50 in assay [1] is 128 ± 8 µM. Besides, in assay [1], the Ki worked out at 63.1 ± 4.2 µM. Moreover, the “activity against STAT5b-6M lower than activity against wild-type STAT5a” value in assay [2] (FP assays) is on record as “approximately 10 fold”.
